pIC50: −log10 of the molar value.
System: 324938-238-R-J1-PDC complex spheroid growth, % test/control
Assay: Anticancer human tumor 324938-238-R-J1-PDC patient-derived bladder carcinoma cell line growth inhibition [AhR]
Conditions: for pIC50: curve of first compound; for viability, T/C: stronger effect = lower value
Method in brief: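 Spheroids combined tumor cells with HUVEC endothelial cells and human MSCs as stroma. AhR antagonists were paired with standard or investigational drugs, each dosed in half-log steps down from near clinical Cmax, or from 10 microM where Cmax was unknown.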

[1] = second compound 0.1 µM, first compound 0.0316 µM
[2] = second compound 0.1 µM, first compound 0.1 µM
[3] = second compound 0.1 µM, first compound 0.316 µM
[4] = second compound 0.1 µM, first compound 1 µM
[5] = second compound 0.1 µM, first compound 3.16 µM
[6] = second compound 0.1 µM, first compound 10 µM
[7] = second compound 0.316 µM, first compound 0.0316 µM
[8] = second compound 0.316 µM, first compound 0.1 µM
[9] = second compound 0.316 µM, first compound 0.316 µM
[10] = second compound 0.316 µM, first compound 1 µM
[11] = second compound 0.316 µM, first compound 3.16 µM
[12] = second compound 0.316 µM, first compound 10 µM
[13] = second compound 1 µM, first compound 0.0316 µM
[14] = second compound 1 µM, first compound 0.1 µM
[15] = second compound 1 µM, first compound 0.316 µM
[16] = second compound 1 µM, first compound 1 µM
[17] = second compound 1 µM, first compound 3.16 µM
[18] = second compound 1 µM, first compound 10 µM
[19] = second compound 3.16 µM, first compound 0.0316 µM
[20] = second compound 3.16 µM, first compound 0.1 µM
[21] = second compound 3.16 µM, first compound 0.316 µM
[22] = second compound 3.16 µM, first compound 1 µM
[23] = second compound 3.16 µM, first compound 3.16 µM
[24] = second compound 3.16 µM, first compound 10 µM
[25] = second compound 10 µM, first compound 0.0316 µM
[26] = second compound 10 µM, first compound 0.1 µM
[27] = second compound 10 µM, first compound 0.316 µM
[28] = second compound 10 µM, first compound 1 µM
[29] = second compound 10 µM, first compound 3.16 µM
[30] = second compound 10 µM, first compound 10 µM
[31] = second compound 0.1 µM, first compound 0.00316 µM
[32] = second compound 0.1 µM, first compound 0.01 µM
[33] = second compound 0.316 µM, first compound 0.00316 µM
[34] = second compound 0.316 µM, first compound 0.01 µM
[35] = second compound 1 µM, first compound 0.00316 µM
[36] = second compound 1 µM, first compound 0.01 µM
[37] = second compound 3.16 µM, first compound 0.00316 µM
[38] = second compound 3.16 µM, first compound 0.01 µM
[39] = second compound 10 µM, first compound 0.00316 µM
[40] = second compound 10 µM, first compound 0.01 µM
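Note: spheroids exposed to agents for seven days before viability read.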

Row | SMILES | pIC50 (second compound 0.1 µM) | pIC50 (second compound 0.316 µM) | pIC50 (second compound 1 µM) | pIC50 (second compound 3.16 µM) | pIC50 (second compound 10 µM) | viability, T/C [1] [%] | viability, T/C [2] [%] | viability, T/C [3] [%] | viability, T/C [4] [%] | viability, T/C [7] [%] | viability, T/C [8] [%] | viability, T/C [9] [%] | viability, T/C [10] [%] | viability, T/C [13] [%] | viability, T/C [14] [%] | viability, T/C [15] [%] | viability, T/C [19] [%] | viability, T/C [20] [%] | viability, T/C [25] [%] | viability, T/C [26] [%] | further results
1 | CC(C)c1c(-c2ccccc2)nc2c(C#N)c[nH]n2c1=O + CC(CO)NC(=O)c1cc(-c2ccc(Cl)cc2)nn(-c2cnn(C)c2)c1=O | < 5.00 | < 5.00 | < 5.00 | < 5.00 | < 5.00 | 110 | 115 | 88.1 | 87.2 | 94.7 | 98.9 | 92.8 | 78.8 | 87.5 | 88.1 | 87.4 | 73.4 | 76.4 | 65.4 | 67 | viability, T/C [5]: 92.5%; viability, T/C [6]: 88%; viability, T/C [11]: 88.5%; viability, T/C [12]: 81.2%; viability, T/C [16]: 76.5%; viability, T/C [17]: 89.2%; viability, T/C [18]: 75.8%; viability, T/C [21]: 71%; viability, T/C [22]: 64.4%; viability, T/C [23]: 63.4%; viability, T/C [24]: 60.9%; viability, T/C [27]: 64%; viability, T/C [28]: 57.9%; viability, T/C [29]: 54.9%; viability, T/C [30]: 56.5%
2 | COc1ccc([C@@H](O)c2cc(-c3ncnc4cc(N5CCOCC5)ccc34)c(F)cc2Cl)nn1 + CC(CO)NC(=O)c1cc(-c2ccc(Cl)cc2)nn(-c2cnn(C)c2)c1=O | < 5.00 | < 5.00 | < 5.00 | < 5.00 | < 5.00 | 99.4 | 110 | 90.2 | 81.8 | 89.4 | 93.4 | 96.8 | 76.4 | 88.8 | 88.7 | 91.6 | 75.2 | 71.1 | 70.7 | 65.5 | viability, T/C [5]: 78.5%; viability, T/C [6]: 66.5%; viability, T/C [11]: 71.6%; viability, T/C [12]: 59.5%; viability, T/C [16]: 70.6%; viability, T/C [17]: 59.5%; viability, T/C [18]: 60.1%; viability, T/C [21]: 68.3%; viability, T/C [22]: 60%; viability, T/C [23]: 63.6%; viability, T/C [24]: 51.8%; viability, T/C [27]: 63.8%; viability, T/C [28]: 56.1%; viability, T/C [29]: 55%; viability, T/C [30]: 55.8%
3 | CC[C@@]1(O)C(=O)OCc2c1cc1n(c2=O)Cc2cc3c(CN(C)C)c(O)ccc3nc2-1 + Cc1ccccc1N=Nc1ccc(NC(=O)c2ccnn2C)c(C)c1 | 7.71 | 7.68 | 7.73 | 7.77 | 7.70 | 32.8 | 16.2 | – | – | 38.1 | 17.4 | – | – | 36 | 15.7 | – | 34.7 | 15.6 | 41.3 | 18.7 | viability, T/C (second compound 0.1 µM, first compound 0.000316 µM): 102%; viability, T/C (second compound 0.1 µM, first compound 0.001 µM): 107%; viability, T/C [31]: 88.9%; viability, T/C [32]: 74.6%; viability, T/C (second compound 0.316 µM, first compound 0.000316 µM): 91.9%; viability, T/C (second compound 0.316 µM, first compound 0.001 µM): 101%; viability, T/C [33]: 94.8%; viability, T/C [34]: 70.7%; viability, T/C (second compound 1 µM, first compound 0.000316 µM): 86.8%; viability, T/C (second compound 1 µM, first compound 0.001 µM): 98.5%; viability, T/C [35]: 86.6%; viability, T/C [36]: 66%; viability, T/C (second compound 3.16 µM, first compound 0.000316 µM): 86.2%; viability, T/C (second compound 3.16 µM, first compound 0.001 µM): 86.3%; viability, T/C [37]: 87%; viability, T/C [38]: 61.9%; viability, T/C (second compound 10 µM, first compound 0.000316 µM): 83.9%; viability, T/C (second compound 10 µM, first compound 0.001 µM): 88.3%; viability, T/C [39]: 73.6%; viability, T/C [40]: 63.9%
4 | COc1cc(C2c3cc4c(cc3C(OC3OC5COC(C)OC5C(O)C3O)C3COC(=O)C23)OCO4)cc(OC)c1O (stereo not given) + Cc1ccccc1N=Nc1ccc(NC(=O)c2ccnn2C)c(C)c1 | 6.41 | 6.52 | 6.51 | 6.60 | 6.54 | 89.2 | 79.3 | 52.3 | 33.4 | 78.4 | 87.8 | 48.7 | 33 | 79.2 | 75.5 | 47.2 | 68.2 | 61.6 | 70.5 | 65.5 | viability, T/C [5]: 28%; viability, T/C [6]: 19.5%; viability, T/C [11]: 27%; viability, T/C [12]: 16.9%; viability, T/C [16]: 29.6%; viability, T/C [17]: 23.7%; viability, T/C [18]: 16.4%; viability, T/C [21]: 46.4%; viability, T/C [22]: 33.3%; viability, T/C [23]: 28%; viability, T/C [24]: 16%; viability, T/C [27]: 43.3%; viability, T/C [28]: 38.7%; viability, T/C [29]: 31.8%; viability, T/C [30]: 18.5%
5 | COc1cccc2c1C(=O)c1c(O)c3c(c(O)c1C2=O)CC(O)(C(=O)CO)CC3OC1CC(N)C(O)C(C)O1 (stereo not given) + Cc1ccccc1N=Nc1ccc(NC(=O)c2ccnn2C)c(C)c1 | > 7.50 | > 7.50 | > 7.50 | > 7.50 | > 7.50 | 34.7 | 29.3 | 18.9 | 4.96 | 37.7 | 35.9 | 13.8 | 4.13 | 35.1 | 31.4 | 16.4 | 34.7 | 31.7 | 38 | 37.6 | viability, T/C [5]: 0.1%; viability, T/C [6]: 0.15%; viability, T/C [11]: 0.05%; viability, T/C [12]: 0.13%; viability, T/C [16]: 3.09%; viability, T/C [17]: 0.05%; viability, T/C [18]: 0.12%; viability, T/C [21]: 15.9%; viability, T/C [22]: 3.16%; viability, T/C [23]: 0.08%; viability, T/C [24]: 0.13%; viability, T/C [27]: 22%; viability, T/C [28]: 5.73%; viability, T/C [29]: 0.14%; viability, T/C [30]: 0.2%
6 | Nc1ncn(C2CC(O)C(CO)O2)c(=O)n1 (stereo not given) + Cc1ccccc1N=Nc1ccc(NC(=O)c2ccnn2C)c(C)c1 | < 6.00 | < 6.00 | < 6.00 | < 6.00 | < 6.00 | 97.8 | 83.3 | 71.2 | 65.3 | 89.4 | 78.5 | 69.7 | 64.8 | 89.5 | 74.7 | 82.3 | 77.2 | 68.7 | 78.6 | 73.6 | viability, T/C [31]: 90.1%; viability, T/C [32]: 94.7%; viability, T/C [33]: 81.9%; viability, T/C [34]: 87.9%; viability, T/C [35]: 85.3%; viability, T/C [36]: 83%; viability, T/C [16]: 62%; viability, T/C [37]: 74.9%; viability, T/C [38]: 78.7%; viability, T/C [21]: 70%; viability, T/C [22]: 60.9%; viability, T/C [39]: 77.9%; viability, T/C [40]: 76.1%; viability, T/C [27]: 73.4%; viability, T/C [28]: 60.7%
